Reference: patent US20260373103A1, “COMPOSITIONS AND METHODS FOR PREVENTING CARDIOMYOPATHY” (OHIO STATE INNOVATION FOUNDATION, priority 2022, published 2026)

Columns and labels:
mice = assay: Safety / tolerability in mice; type: in vivo; conditions: 25 mg/kg/day i.p. for 5 days
Method: The mt-Keima mouse. ST-539 was dissolved into 1% DMSO in Sesame oil and injected intraperitoneally (i.p.) at doses of 25 mg/kg/day with five total doses. Both male and female mice were used in this study. The control group received vehicle only. Echocardiographic measurements were taken using a Vevo3100 Visual Sonics (Visual Sonics) system. The mice were lightly anesthetized with isoflurane and the ejection fraction, fractional shortening, and ventricular chamber dimensions were determined using 2-D-guided M mode images. Ejection fraction, fractional shortening, ventricular chamber dimensions, and left ventricular mass were calculated automatically using the VevoLAB program. All experiments involving animals were approved by the Institutional Animal Care and Use Committee at The Ohio State University.

TIM23 = TIM23 protein level/degradation after A/O, immunoblotting; type: cell-based; conditions: ST-539; HeLa-Parkin/USP30, A/O 18 h
Method: (§1) HeLa cells and mouse embryonic fibroblasts (MEFs) were grown in Dulbecco's minimum essential medium (DMEM) with 10% fetal bovine serum (FBS) supplemented with penicillin-streptomycin. HeLa Parkin, PINK1 KO cells, WT and MFN2 KO cells were previously described. Cells stably expressing USP30 were generated using lentiviral vectors of pLVX-Puro-Myc-USP30. The USP30 plasmid was obtained from Addgene. The plasmid was transferred into a lentiviral vector and viral particles were prepared by transiently transfecting HEK293T using standard methods. For the drug treatment experiments, cells were incubated in medium containing a mixture of 5 μM oligomycin and 5 μM antimycin A (A/O; see figures for treatment times). In 18 h treatment, A/O were used in combination with 10 μM quinolyl-valyl-O-methylaspartyl-[−2,6-difluorophenoxy]-methyl ketone (QVD), a broad-spectrum caspase inhibitor. […]
(§2) The enzymatic activity of Parkin is to function as an E3 ubiquitin ligase. […] We then employed this cellular assay to monitor TOM20 turnover, and analyzed compounds known to be associated with the ubiquitination process for inhibitors of USP30. […] Initially to assess mitophagy in cells, we monitored the degradation of the inner membrane protein, the translocase of the inner membrane 23 (TIM23), by immunoblotting (FIG. 5A). […]

hippocampus of the brain = assay: In vivo mitophagy in hippocampus of the brain; set-up: species or system mouse; conditions: 25 mg/kg/day i.p. for 5 days
Method: Fluorescent samples were examined with a Zeiss LSM 780 confocal microscope (Carl Zeiss MicroImaging). As previously described^2, fluorescence of mt-Keima was imaged in two channels via two sequential excitations (458 nm, green; 561 nm, red) and using a 570- to 695-nm emission range. Confocal experiments for parkin translocation were performed using a HeLa cell line stably expressing YFP-Parkin plated on 35 mm coverglass #1.5 chamber dishes (MatTek). These cells were treated for 2 h with DMSO as vehicle control or with A/O. YFP was imaged with a 514-nm excitation and 520- to 570-emission filters. Representative confocal images were processed using Imaris software by contrast linear stretch only. Calculation of mitophagy based on mt-Keima signal was performed using Zeiss ZEN software as previously described^2. The average of four images from each tissue sample was taken, and the values were normalized to the average value seen in the controls, assigned the value of one.
The mt-Keima mouse. […] The mice were lightly anesthetized with isoflurane and the ejection fraction, fractional shortening, and ventricular chamber dimensions were determined using 2-D-guided M mode images. Ejection fraction, fractional shortening, ventricular chamber dimensions, and left ventricular mass were calculated automatically using the VevoLAB program. […]

TOM40 = TOM40 protein level/degradation after A/O, immunoblotting; type: cell-based; conditions: ST-539; HeLa-Parkin/USP30, A/O 18 h
Method: as §1, §2

CC(C)(C)NS(=O)(=O)c1cccc2c(NC(=O)C(Cc3ccccc3)NC(=O)c3ccccc3)cccc12 (stereo not shown) [ST-539]
safety / tolerability in mice (mice): appears to be safe in mice | TIM23 degradation (TIM23): restored TIM23 and TOM40 degradation | mitophagic flux in hippocampus (hippocampus of the brain): remains unchanged | TOM40 degradation (TOM40): restored TIM23 and TOM40 degradation
